Measured values taken from patent US9849136B2, “Thiazole and oxazole-substituted arylamides as P2X3 and P2X2/3 antagonists” (Roche Palo Alto LLC, priority 2006, dated 2017).

Columns and labels:
[1] = molecular target: T1, human P2X2/3 receptor (Homo sapiens, UniProt P56373+Q9UBL9); assay: P2X2/3 FLIPR (Fluorometric Imaging Plate Reader) assay; format: cell-based; details: CHO-K1 cells transfected with human P2X2/3; agonist α,β-meATP 5 μM; Fluo-3 calcium fluorescence
T1 construct: expressed in transfected cells; host or cells: CHO-K1
T1 sequence (Q9UBL9 1-471): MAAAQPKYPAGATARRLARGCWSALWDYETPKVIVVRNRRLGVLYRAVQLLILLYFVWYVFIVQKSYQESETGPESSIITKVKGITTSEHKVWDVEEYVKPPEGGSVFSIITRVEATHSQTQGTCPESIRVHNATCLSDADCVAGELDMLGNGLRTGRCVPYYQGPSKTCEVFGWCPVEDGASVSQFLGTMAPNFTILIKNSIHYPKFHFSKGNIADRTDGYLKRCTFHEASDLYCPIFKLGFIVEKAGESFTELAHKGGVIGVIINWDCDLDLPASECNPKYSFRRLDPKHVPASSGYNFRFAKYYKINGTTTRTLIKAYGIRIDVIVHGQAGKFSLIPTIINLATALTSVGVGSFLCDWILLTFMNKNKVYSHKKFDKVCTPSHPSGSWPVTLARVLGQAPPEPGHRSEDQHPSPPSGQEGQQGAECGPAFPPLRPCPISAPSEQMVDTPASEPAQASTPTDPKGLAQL
T1 sequence (P56373 1-397): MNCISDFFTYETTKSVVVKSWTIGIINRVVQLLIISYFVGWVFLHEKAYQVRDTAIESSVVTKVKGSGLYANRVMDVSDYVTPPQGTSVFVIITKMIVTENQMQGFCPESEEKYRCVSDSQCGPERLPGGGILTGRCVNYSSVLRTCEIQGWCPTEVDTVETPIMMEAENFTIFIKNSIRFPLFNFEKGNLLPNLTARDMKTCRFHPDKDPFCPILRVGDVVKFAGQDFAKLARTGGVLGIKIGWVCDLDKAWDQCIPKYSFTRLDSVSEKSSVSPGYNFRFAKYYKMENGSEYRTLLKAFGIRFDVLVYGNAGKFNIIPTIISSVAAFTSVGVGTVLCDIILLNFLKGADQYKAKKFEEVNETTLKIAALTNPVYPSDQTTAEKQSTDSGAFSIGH
Protocol: (§1) CHO-Kl cells were transfected with cloned rat P2X3 or human P2X2/3 receptor subunits and passaged in flasks. 18-24 hours before the FLIPR experiment, cells were released from their flasks, centrifuged, and resuspended in nutrient medium at 2.5×10^5 cells/ml. The cells were aliquoted into black-walled 96-well plates at a density of 50,000 cells/well and incubated overnight in 5% CO2 at 37° C. On the day of the experiment, cells were washed in FLIPR buffer (calcium- and magnesium-free Hank's balanced salt solution, 10 mM HEPES, 2 mM CaCl2, 2.5 mM probenecid; FB). Each well received 100 μl FB and 100 μl of the fluorescent dye Fluo-3 AM [2 μM final conc.]. […]
(§2) Test compounds (dissolved in DMSO at 10 mM and serially diluted with FB) or vehicle were added to each well (25 μl of a 4× solution) and allowed to equilibrate for 20 minutes at room temperature. The plates were then placed in the FLIPR and a baseline fluorescence measurement (excitation at 488 nm and emission at 510-570 nm) was obtained for 10 seconds before a 100 μl/well agonist or vehicle addition. […] Fluorescence was measured for an additional 2 minutes at 1 second intervals after agonist addition. A final addition of ionomycin (5 μM, final concentration) was made to each well of the FLIPR test plate to establish cell viability and maximum fluorescence of dye-bound cytosolic calcium. […]

[2] = molecular target: T2, rat P2X3 receptor (Rattus norvegicus, UniProt P49654); assay: P2X3 FLIPR (Fluorometric Imaging Plate Reader) assay; format: cell-based; details: CHO-K1 cells transfected with cloned rat P2X3; agonist α,β-meATP 1 μM; Fluo-3 calcium fluorescence
T2 construct: expressed in transfected cells; host or cells: CHO-K1
T2 sequence (P49654 1-397): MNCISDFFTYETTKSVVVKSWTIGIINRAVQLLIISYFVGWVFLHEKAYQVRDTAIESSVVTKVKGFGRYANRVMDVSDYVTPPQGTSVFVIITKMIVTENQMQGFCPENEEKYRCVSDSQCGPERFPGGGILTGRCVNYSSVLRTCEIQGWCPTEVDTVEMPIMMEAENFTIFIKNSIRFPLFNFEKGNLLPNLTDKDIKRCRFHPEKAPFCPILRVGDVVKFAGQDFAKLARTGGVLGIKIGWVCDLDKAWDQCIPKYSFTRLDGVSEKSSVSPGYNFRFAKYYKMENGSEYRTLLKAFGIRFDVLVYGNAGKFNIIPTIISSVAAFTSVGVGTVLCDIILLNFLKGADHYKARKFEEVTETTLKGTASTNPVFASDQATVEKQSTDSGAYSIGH
Protocol: as §1, §2

SMILES	pKi for the P2X2/3 receptor [1]	pIC50 for the P2X3 receptor [2]
Cc1ccc(-c2cc(C(=O)N[C@H](C)CN3CCOCC3)cc(-c3scnc3C)c2)cc1 [Compound 43, (R)-4′-Methyl-5-(4-methyl-thiazol-5-yl)-biphenyl-3-carboxylic acid (1-methyl-2-morpholin-4-yl-ethyl)-amide]	approximately 7.30	
Cc1ccc(-c2cc(C(=O)N[C@@H](C)CO)cc(-c3scnc3C)c2)cc1 [Compound 45, (S)-4′-Methyl-5-(4-methyl-thiazol-5-yl)-biphenyl-3-carboxylic acid (2-hydroxy-1-methyl-ethyl)-amide]		approximately 8.24
